From the NIST ThermoML archive (doi:10.1016/j.jct.2010.04.018)
± gives the expanded uncertainty stated by the source.

Assay: cn = amount concentration of the nth substance listed, in mol/dm3
Conditions: 101 kPa, Liquid; for speed of sound: Sing-around technique in a fixed-path interferometer; for mass density: Vibrating tube method

Oc1ccccc1O [1,2-benzenediol] + O
Conditions | mass density, 283.15 K [kg/m3] | mass density, 293.15 K [kg/m3] | mass density, 298.15 K [kg/m3] | mass density, 303.15 K [kg/m3] | mass density, 313.15 K [kg/m3] | speed of sound, 283.15 K [m/s] | speed of sound, 293.15 K [m/s] | speed of sound, 298.15 K [m/s] | speed of sound, 303.15 K [m/s] | speed of sound, 313.15 K [m/s]
c1 = 0.0354 | 1000.62 ± 0.041 | 999.093 ± 0.041 | 997.92 ± 0.041 | 996.509 ± 0.042 | 993.058 ± 0.042 | 1449.9 ± 1.2 | 1484.1 ± 1.2 | 1498.2 ± 1.2 | 1510.5 ± 1.2 | 1529.9 ± 1.2
c1 = 0.1697 | 1003.9 ± 0.043 | 1002.24 ± 0.042 | 1001.01 ± 0.041 | 999.543 ± 0.041 | 995.992 ± 0.041 | 1457.9 ± 1.2 | 1490.6 ± 1.2 | 1504 ± 1.2 | 1515.7 ± 1.2 | 1534.1 ± 1.2
c1 = 0.346 | 1008.13 ± 0.045 | 1006.3 ± 0.043 | 1004.99 ± 0.043 | 1003.46 ± 0.042 | 999.774 ± 0.041 | 1467.9 ± 1.2 | 1498.7 ± 1.2 | 1511.4 ± 1.2 | 1522.2 ± 1.2 | 1539.2 ± 1.2
c1 = 0.4721 | 1011.09 ± 0.046 | 1009.14 ± 0.048 | 1007.78 ± 0.046 | 1006.19 ± 0.046 | 1002.41 ± 0.042 | 1474.5 ± 1.2 | 1504.1 ± 1.2 | 1516.2 ± 1.2 | 1526.6 ± 1.2 | 1542.6 ± 1.2
c1 = 0.5008 | 1011.78 ± 0.047 | 1009.79 ± 0.043 | 1008.42 ± 0.043 | 1006.82 ± 0.042 | 1003.02 ± 0.042 | 1476.5 ± 1.2 | 1505.4 ± 1.2 | 1517.3 ± 1.2 | 1527.5 ± 1.2 | 1543.4 ± 1.2
c1 = 0.6589 | 1015.4 ± 0.048 | 1013.26 ± 0.047 | 1011.82 ± 0.046 | 1010.15 ± 0.045 | 1006.23 ± 0.044 | 1484 ± 1.2 | 1511.8 ± 1.2 | 1523 ± 1.2 | 1532.7 ± 1.2 | 1547.3 ± 1.2
c1 = 0.7524 | 1017.53 ± 0.049 | 1015.29 ± 0.047 | 1013.81 ± 0.047 | 1012.11 ± 0.046 | 1008.12 ± 0.045 | 1488.5 ± 1.2 | 1515.4 ± 1.2 | 1526.3 ± 1.2 | 1535.5 ± 1.2 | 1549.5 ± 1.2

Oc1cccc(O)c1 [1,3-benzenediol] + O
Conditions | mass density, 283.15 K [kg/m3] | mass density, 293.15 K [kg/m3] | mass density, 298.15 K [kg/m3] | mass density, 303.15 K [kg/m3] | mass density, 313.15 K [kg/m3] | speed of sound, 283.15 K [m/s] | speed of sound, 293.15 K [m/s] | speed of sound, 298.15 K [m/s] | speed of sound, 303.15 K [m/s] | speed of sound, 313.15 K [m/s]
c1 = 0.0479 | 1000.93 ± 0.04 | 999.387 ± 0.041 | 998.206 ± 0.041 | 996.776 ± 0.041 | 993.338 ± 0.041 | 1449.5 ± 1.2 | 1483.7 ± 1.2 | 1497.8 ± 1.2 | 1510 ± 1.2 | 1529.5 ± 1.2
c1 = 0.101 | 1002.08 ± 0.041 | 1000.51 ± 0.04 | 999.325 ± 0.04 | 997.875 ± 0.04 | 994.393 ± 0.041 | 1451.5 ± 1.2 | 1485.2 ± 1.2 | 1499.1 ± 1.2 | 1511.2 ± 1.2 | 1530.3 ± 1.2
c1 = 0.1786 | 1003.79 ± 0.042 | 1002.17 ± 0.041 | 1000.95 ± 0.04 | 999.476 ± 0.04 | 995.941 ± 0.041 | 1454.3 ± 1.2 | 1487.3 ± 1.2 | 1500.9 ± 1.2 | 1512.8 ± 1.2 | 1531.4 ± 1.2
c1 = 0.3402 | 1007.38 ± 0.043 | 1005.58 ± 0.042 | 1004.28 ± 0.042 | 1002.77 ± 0.041 | 999.12 ± 0.04 | 1459.9 ± 1.2 | 1491.6 ± 1.2 | 1504.7 ± 1.2 | 1515.9 ± 1.2 | 1533.7 ± 1.2
c1 = 0.4522 | 1009.8 ± 0.044 | 1007.9 ± 0.043 | 1006.56 ± 0.043 | 1005 ± 0.042 | 1001.29 ± 0.041 | 1463.5 ± 1.2 | 1494.5 ± 1.2 | 1507.1 ± 1.2 | 1518 ± 1.2 | 1535.2 ± 1.2
c1 = 0.5654 | 1012.22 ± 0.046 | 1010.22 ± 0.045 | 1008.84 ± 0.044 | 1007.25 ± 0.043 | 1003.46 ± 0.042 | 1467.2 ± 1.2 | 1497.3 ± 1.2 | 1509.6 ± 1.2 | 1520.1 ± 1.2 | 1536.6 ± 1.2
c1 = 0.7623 | 1016.36 ± 0.048 | 1014.19 ± 0.047 | 1012.74 ± 0.046 | 1011.08 ± 0.045 | 1007.17 ± 0.044 | 1473.5 ± 1.2 | 1502 ± 1.2 | 1513.7 ± 1.2 | 1523.7 ± 1.2 | 1539 ± 1.2

Oc1ccc(O)cc1 [1,4-benzenediol] + O
Conditions | mass density, 283.15 K [kg/m3] | mass density, 293.15 K [kg/m3] | mass density, 298.15 K [kg/m3] | mass density, 303.15 K [kg/m3] | mass density, 313.15 K [kg/m3] | speed of sound, 283.15 K [m/s] | speed of sound, 293.15 K [m/s] | speed of sound, 298.15 K [m/s] | speed of sound, 303.15 K [m/s] | speed of sound, 313.15 K [m/s]
c1 = 0.011 | 1000 ± 0.04 | 998.494 ± 0.045 | 997.334 ± 0.042 | 995.934 ± 0.044 | 992.505 ± 0.042 | 1448.2 ± 1.2 | 1482.6 ± 1.2 | 1496.9 ± 1.2 | 1509.3 ± 1.2 | 1529 ± 1.2
c1 = 0.0342 | 1000.53 ± 0.04 | 999.001 ± 0.04 | 997.84 ± 0.04 | 996.428 ± 0.041 | 992.992 ± 0.042 | 1449.2 ± 1.2 | 1483.3 ± 1.2 | 1497.5 ± 1.2 | 1509.9 ± 1.2 | 1529.4 ± 1.2
c1 = 0.0554 | 1001.02 ± 0.041 | 999.463 ± 0.04 | 998.3 ± 0.04 | 996.878 ± 0.041 | 993.436 ± 0.041 | 1450 ± 1.2 | 1483.9 ± 1.2 | 1498.1 ± 1.2 | 1510.3 ± 1.2 | 1529.8 ± 1.2
c1 = 0.1035 | 1002.11 ± 0.041 | 1000.5 ± 0.04 | 999.338 ± 0.04 | 997.892 ± 0.04 | 994.437 ± 0.041 | 1451.9 ± 1.2 | 1485.2 ± 1.2 | 1499.3 ± 1.2 | 1511.5 ± 1.2 | 1530.6 ± 1.2
c1 = 0.201 | 1004.28 ± 0.042 | 1002.58 ± 0.041 | 1001.41 ± 0.04 | 999.925 ± 0.04 | 996.443 ± 0.041 | 1455.5 ± 1.2 | 1487.6 ± 1.2 | 1501.8 ± 1.2 | 1513.7 ± 1.2 | 1532.2 ± 1.2
c1 = 0.2996 | 1006.44 ± 0.043 | 1004.65 ± 0.042 | 1003.48 ± 0.041 | 1001.95 ± 0.041 | 998.439 ± 0.04 | 1458.9 ± 1.2 | 1489.8 ± 1.2 | 1504.1 ± 1.2 | 1515.7 ± 1.2 | 1533.7 ± 1.2
c1 = 0.4022 | 1008.64 ± 0.044 | 1006.75 ± 0.042 | 1005.59 ± 0.042 | 1004.02 ± 0.041 | 1000.49 ± 0.04 | 1462.2 ± 1.2 | 1492 ± 1.2 | 1506.4 ± 1.2 | 1517.8 ± 1.2 | 1535.2 ± 1.2

O [water] + Oc1ccccc1O
c2 = 0
Conditions | mass density [kg/m3] | speed of sound [m/s]
283.15 K | 999.749 ± 0.041 | –
293.15 K | 998.252 ± 0.044 | –
313.15 K | 992.273 ± 0.042 | 1528.8 ± 1.2
